Data from US20080255232A1, “Naphthyl Derivatives as Inhibitors of Beta-Amyloid Aggregation” (SIGMA-TAU INDUSTRIE FARMACEUTICHE RIUNITE S.P.A., priority 2005, published 2008).
Counter-ions that a name gives are not always drawn. Like-named read-outs stand apart in the source and are kept apart here. Values belong to the compound of their own block, whether it stands above or below them.

Legend:
[1] = target: T1, peptide βA1-42 (Homo sapiens, UniProt P05067); experiment: Anti-aggregating activity on peptide βA1-42, thioflavin T fluorescence; assay type: biochemical; conditions: thioflavin T binding, aggregate + non aggregate β-A(1-42), 37° C., 24 hours; read-out: IC50 (dose reducing the aggregate formation of the 50%)
T1 construct: The β-A(1-42) was dissolved in a mixture of Acetonitrile and distilled water
Procedure: The anti-aggregating activity of the compound of formula (I) on the peptide βA1-42 is carried out via the binding of the thioflavin T according to the following procedure.
The β-A(1-42) was dissolved in a mixture of Acetonitrile and distilled water (CH3CN/H2O 1:1) to the final concentration of 1 mg/mL. The solution was divided in aliquots of 2 mL and stored at −80° C. until the use. The work solution was prepared diluting the stock solution five times with H2O (final concentration 44 μmol/L).
The β-A(1-42) was dissolved in a mixture of Acetonitrile and distilled water (CH3CN/H2O 1:1) to the final concentration of 1 mg/mL. An aliquot of 2 mL was freeze-dried to eliminate the trifluoroacetic acid residual of the peptide synthesis. The β-A(1-42) peptide was subsequently dissolved in 0.1 mL of DMSO and 5.0 mL of 2×PBS, pH 7.4. Once dissolved the β-A(1-42) was incubated to 37° C. for 8 days, at the end, after sonication, it was diluted five times with 2×PBS (final concentration 17.4 μmol/L). Waiting to be used, the aggregate β-A(1-42) was divided in aliquots and stored at −80° C.
Fluorescence Measurement with Thioflavin T
Scheme of added volumes in 96-well plates:
The assay was performed in triplicate in 96-well plates as reported above in scheme. Test compounds were added in the wells containing the aggregate β-A(1-42) then, 15 after minutes, the non-aggregate β-A(1-42) was added. The 96-well plates were incubated at 37° C. under agitation for 24 hours.
The following day, a volume of 200 μL of a solution containing 10 μmol/L thioflavin T and 50 μmol/L Na2HPO4 pH 6.5 was added to each well. Fluorescence was measured in a VICTOR 2 (WALLAC) fluorescence spectrophotometer (λex=450 nm, λem=486 nm) (Findelis M. A et al).
The data were expressed as percent of residual aggregated β-A and, when possible, the dose reducing the aggregate formation of the 50% (IC50) was estimate.
The % of aggregation was determinated by the following formula:
(βAmyloid+Test compound)−(Blank+Test compound)×100

[2] = Blood brain barrier crossing: plasma and brain concentrations after s.c. injection; assay type: in vivo; conditions: mice, s.c. 25 mg/kg
Procedure: In order to obtain basic information on the concentration achieved in brain of rodents after parental doses and their relationship with plasma concentrations, mice and rats were used. […] Compounds were determined in plasma by high-performance liquid chromatography (HPLC) after a solid liquid extraction procedure. Briefly, Oasis HLB 1 cc cartridges were pre-wetted with methanol and distilled water. Then internal standard, mouse plasma or rat plasma were added and the cartridges were washed with mater-methanoland methanol, interrupting the vacuum before the column was completely dry after each passage. The compound was removed by eluiting the cartridges with methanol and evaporated to dryness under nitrogen. The residue was dissolved in the mobile phase centrifuged and analyzed by HPLC with UV detection (224 nm).
Separation was done on a pBondapack C18 column protected by a LiChrosphere RP-8 pre-column at room temperature. The mobile phase was CH3CN:CH3OH:0.001M KH2PO4 (40:10:50 v/v) delivered at a flow rate of 1.2 mL/min.
Brain tissue was homogenized (1 g/10 ml) in CH3CN:0.001M phosphate buffer, pH 7.4 and a volume containing approximately 100 mg of tissue was centrifuged. The supernatant was processed as for plasma.
Mean brain and plasma area under the concentration-time curve (AUCt) were determined using the linear trapezoidal rule and extrapolated to infinity (AUC) by the concentration method. The elimination rate constant was calculated by least squares regression analysis of the terminal log-linear portion of the plasma and the brain drug concentration curves. The maximum concentration (Cmax) and the time (tmax) of its occurrence were read directly from the plasma and brain concentration time data.

T1 sequence (P05067 672-713): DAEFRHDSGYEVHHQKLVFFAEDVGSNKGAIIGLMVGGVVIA

SMILES: COc1ccc(Nc2ccccc2)c2ccccc12 [ST2173, 4-methoxy-N-phenyl-1-naphthalenamine]
melting point: 141 to 143 °C

SMILES: COC(=O)c1ccc(Nc2ccc(O)c3ccccc23)cc1 [ST2178, methyl 4-[(4-hydroxy-1-naphthyl)amino]benzoate]
IC50 [1]: 5.13 µM
melting point: 188 to 190 °C

SMILES: Oc1ccc(Nc2ccc(O)c3ccccc23)cc1 [ST2177, 4-(4-hydroxyanilino)-1-naphthol]
IC50 [1]: 1 µM

SMILES: Oc1ccc2ccccc2c1Cc1c(O)ccc2ccccc12 [ST1859, 1-[(2-hydroxy-1-naphthyl)methyl]-2-naphthol, reference compound]
IC50 [1]: 23.5 µM

SMILES: Oc1ccc(Nc2ccccc2)c2ccccc12 [ST2176, 4-anilino-1-naphthol]
IC50 [1]: 5.43 µM

SMILES: COc1ccc(Nc2ccc(OC)c3ccccc23)cc1 [ST2175, 4-methoxy-N-(4-methoxyphenyl)-1-naphthalenamine]
Cmax, Brain ([2]; brain): 410 ng/mL or L
AUCt, Brain ([2]; brain, linear trapezoidal rule): 1643 ng/L · h or g
Kp at 0.25 h ([2]; mouse, brain, sc, 25 mg/kg, 15 min, read-out: Brain to Plasma ratio): 2.3
Kp at 0.5 h ([2]; mouse, brain, sc, 25 mg/kg, 30 min, read-out: Brain to Plasma ratio): 3.6
Kp at 1 h ([2]; mouse, brain, sc, 25 mg/kg, 60 min, read-out: Brain to Plasma ratio): 2.5
Kp at 2 h ([2]; mouse, brain, sc, 25 mg/kg, 120 min, read-out: Brain to Plasma ratio): 2
Kp at 3 h ([2]; mouse, brain, sc, 25 mg/kg, 180 min, read-out: Brain to Plasma ratio): 1.8
Kp at 4 h ([2]; mouse, brain, sc, 25 mg/kg, 240 min, read-out: Brain to Plasma ratio): 1.3
Kp at 6 h ([2]; mouse, brain, sc, 25 mg/kg, 360 min, read-out: Brain to Plasma ratio): 1.7
Kp ([2]; mouse, brain, sc, 25 mg/kg, read-out: AUCt, Brain to Plasma ratio): 1.9
Kp ([2]; mouse, brain, sc, 25 mg/kg, read-out: Cmax, Brain to Plasma ratio): 2.5
concentration at 15 min ([2]; mouse, brain, sc, 15 min, read-out: Brain (mean ± SD)): 321 ± 130 ng/g
concentration at 30 min ([2]; mouse, brain, sc, 30 min, read-out: Brain (mean ± SD)): 398 ± 269 ng/g
concentration at 60 min ([2]; mouse, brain, sc, 60 min, read-out: Brain (mean ± SD)): 410 ± 192 ng/g
concentration at 120 min ([2]; mouse, brain, sc, 120 min, read-out: Brain (mean ± SD)): 289 ± 61 ng/g
concentration at 180 min ([2]; mouse, brain, sc, 180 min, read-out: Brain (mean ± SD)): 253 ± 77 ng/g
concentration at 240 min ([2]; mouse, brain, sc, 240 min, read-out: Brain (mean ± SD)): 220 ± 61 ng/g
concentration at 360 min ([2]; mouse, brain, sc, 360 min, read-out: Brain (mean ± SD)): 232 ± 94 ng/g
concentration at 15 min ([2]; mouse, plasma, sc, 15 min, read-out: Plasma (mean ± SD)): 138 ng/mL
concentration at 30 min ([2]; mouse, plasma, sc, 30 min, read-out: Plasma (mean ± SD)): 109 ng/mL
concentration at 60 min ([2]; mouse, plasma, sc, 60 min, read-out: Plasma (mean ± SD)): 164 ± 18 ng/mL
concentration at 120 min ([2]; mouse, plasma, sc, 120 min, read-out: Plasma (mean ± SD)): 142 ± 16 ng/mL
concentration at 180 min ([2]; mouse, plasma, sc, 180 min, read-out: Plasma (mean ± SD)): 139 ± 31 ng/mL
concentration at 240 min ([2]; mouse, plasma, sc, 240 min, read-out: Plasma (mean ± SD)): 159 ± 38 ng/mL
concentration at 360 min ([2]; mouse, plasma, sc, 360 min, read-out: Plasma (mean ± SD)): 130 ± 13 ng/mL
Tmax ([2]; mouse, sc, brain, read-out: tmax, Brain (converted)): 1 h
Cmax ([2]; mouse, sc, plasma): 164 ng/mL
AUC(0-t) ([2]; mouse, sc, plasma, linear trapezoidal rule, read-out: AUCt, Plasma): 850 ng·h/mL
Tmax ([2]; mouse, sc, plasma, read-out: tmax, Plasma (converted)): 1 h
IC50 [1]: 5.59 µM

SMILES: COc1ccc(Nc2ccc(OC)c3ccccc23)cc1C(=O)O [ST2174, 2-methoxy-5-[(4-methoxy-1-naphthyl)amino]benzoic acid]
melting point: 153 to 154 °C

Results, then the compound that gave them:

melting point: 108 to 110 °C
SMILES: COc1ccccc1Nc1ccc(OC)c2ccccc12 [ST2879, N-(4-methoxy-1-naphthyl)-N-(2-methoxyphenyl)amine]

IC50 [1]: 7.2 µM
SMILES: Oc1ccc(Sc2ccc(O)c3ccccc23)cc1 [ST3501, 4-[(4-hydroxyphenyl)thio]-1-naphthol]

IC50 [1]: 2.4 µM
SMILES: Oc1c(Nc2ccccc2)ccc2ccccc12 [ST2762, 1-hydroxy-N-phenylnaphthalen-2-aminiumchloride]

IC50 [1]: 2.7 µM
SMILES: COc1ccc(Nc2ccc([N+](=O)[O-])c3ccccc23)cc1 [ST3451, N-(4-methoxyphenyl)-4-nitronaphthalen-1-amine]

IC50 [1]: 2.2 µM
SMILES: CSc1ccc(Nc2ccc(N(C)C)c3ccccc23)cc1 [ST3458, N,N-dimethyl-N′-[4-(methylthio)phenyl]naphthalene-1,4-diamine dihydrochloride]

IC50 [1]: 5.7 µM
SMILES: COc1ccc2ccccc2c1Nc1c(OC)ccc2ccccc12 [ST2761, 2-methoxy-N-(2-methoxy-1-naphthyl)naphthalen-1-amine]

IC50 [1]: 14.1 µM
SMILES: O=C(O)c1ccccc1Nc1c(O)ccc2ccccc12 [ST2757, 2-[(2-hydroxy-1-naphthyl)amino]benzoic acid]

IC50 [1]: 2.6 µM
SMILES: O=C(O)c1ccc(Nc2ccc3ccccc3c2O)cc1 [ST3459, 4-[(1-hydroxy-2-naphthyl)amino]benzoic acid]
